Usually IC50 stands for the point on the concentration scale where inhibition reaches its midpoint.

For the assay, the target named is T1, full length MPS1 (Homo sapiens, UniProt P33981).
T1 sequence (P33981 1-857): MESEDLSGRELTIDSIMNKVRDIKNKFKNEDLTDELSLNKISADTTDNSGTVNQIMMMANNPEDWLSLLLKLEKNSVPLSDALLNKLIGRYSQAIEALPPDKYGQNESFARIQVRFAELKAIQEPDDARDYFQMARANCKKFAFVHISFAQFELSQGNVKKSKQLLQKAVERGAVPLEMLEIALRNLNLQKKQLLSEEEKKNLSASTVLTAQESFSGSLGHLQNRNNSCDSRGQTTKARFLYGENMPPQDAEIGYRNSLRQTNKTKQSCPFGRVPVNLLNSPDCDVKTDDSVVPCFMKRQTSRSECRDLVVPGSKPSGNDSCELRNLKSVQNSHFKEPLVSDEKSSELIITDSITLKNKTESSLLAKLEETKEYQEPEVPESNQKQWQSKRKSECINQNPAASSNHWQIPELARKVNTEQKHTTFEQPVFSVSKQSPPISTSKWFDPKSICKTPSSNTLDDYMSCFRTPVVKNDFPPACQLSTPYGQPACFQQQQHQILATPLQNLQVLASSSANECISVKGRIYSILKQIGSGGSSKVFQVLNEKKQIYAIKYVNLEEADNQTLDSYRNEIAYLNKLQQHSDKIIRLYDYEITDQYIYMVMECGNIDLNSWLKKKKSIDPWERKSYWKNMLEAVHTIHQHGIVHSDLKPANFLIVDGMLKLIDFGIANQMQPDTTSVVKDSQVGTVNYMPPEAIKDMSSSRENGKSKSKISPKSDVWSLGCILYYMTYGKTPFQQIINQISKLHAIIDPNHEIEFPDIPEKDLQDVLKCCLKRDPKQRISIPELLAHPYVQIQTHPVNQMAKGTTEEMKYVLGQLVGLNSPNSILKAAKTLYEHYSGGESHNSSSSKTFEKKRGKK
Nature of the assay: biochemical.

In turn, `COc1ccc(Nc2cc3[nH]c(-c4cn[nH]c4)cc3cn2)c(OC)c1` [Example 160, N-(2,4-Dimethoxyphenyl)-2-(1H-pyrazol-4-yl)-1H-pyrrolo[3,2-c]pyridin-6-amine] had a concentration for half-maximal inhibition (IC50) of 19 nM. Consider `CN(C)C(=O)c1ccc(Nc2cc3[nH]c(-c4cnn(C)c4)c(Cl)c3cn2)c(Cl)c1` [Example 190, 3-Chloro-4-(3-chloro-2-(1-methyl-1H-pyrazol-4-yl)-1H-pyrrolo[3,2-c]pyridin-6-ylamino)-N,N-dimethylbenzamide], for which half-maximal inhibition (IC50) required 8.4 nM. This IC50 is about 2.3-fold lower than that of the compound before. For `COc1cc(CN2CCS(=O)(=O)CC2)ccc1Nc1cc2[nH]c(-c3cnn(C)c3)cc2cn1` [Example 116, N-(2-Methoxy-4-(thiomorpholinomethyl)phenyl)-2-(1-methyl-1H-pyrazol-4-yl)-1H-pyrrolo[3,2-c]pyridin-6-amine-S,S-dioxide], the IC50 worked out at 10 nM. In the case of `CN(C)C(=O)c1ccc(Nc2cc3c(cn2)cc(-c2cnn(C)c2)n3C(=O)OC(C)(C)C)c(OC(F)(F)F)c1` [Example 3] it was 6 nM; in that of `Cn1cc(-c2cc3cnc(Nc4ccc(-c5nncn5C)cc4Cl)cc3n2C(=O)OC(C)(C)C)cn1` [Example 18], 1 nM. In the case of `Cc1ncc(-c2ccc(Nc3cc4c(cn3)cc(-c3cnn(C)c3)n4C(=O)OC(C)(C)C)c(Cl)c2)n1C` [Example 47] it was 5 nM. `CCN(C)C(=O)c1ccc(Nc2cc3[nH]c(-c4cnn(C)c4)cc3cn2)c(Cl)c1` [Example 144, 3-Chloro-N-ethyl-N-methyl-4-(2-(1-methyl-1H-pyrazol-4-yl)-1H-pyrrolo[3,2-c]pyridin-6-ylamino)benzamide] yielded a 50% inhibitory concentration (IC50) of 11 nM. In the case of `COc1ncccc1Nc1cc2[nH]c(-c3cnn(C)c3)cc2cn1` [Example 112, N-(2-Methoxypyridin-3-yl)-2-(1-methyl-1H-pyrazol-4-yl)-1H-pyrrolo[3,2-c]pyridin-6-amine] it was 21 nM; in that of `Cn1cc(-c2cc3cnc(Nc4ccc(C(=O)N5CC(F)(F)C5)cc4Cl)cc3[nH]2)cn1` [Example 153, (3-Chloro-4-((2-(1-methyl-1H-pyrazol-4-yl)-1H-pyrrolo[3,2-c]pyridin-6-yl)amino)phenyl)(3,3-difluoroazetidin-1-yl)methanone], 21 nM.

Regarding `COc1cc(-c2cn(C)nc2C)ccc1Nc1cc2c(cn1)cc(-c1cnn(C)c1)n2C(=O)OC(C)C` [Example 103], half-maximal inhibition (IC50) was put at 2 nM. Compared with the last compound, the IC50 is about 10-fold lower.

For the origin of these results see US9371319B2, “Pyrrolopyridineamino derivatives as MPS1 inhibitors” (priority 2011, dated 2016).
